In patent US10682371B2, “Small molecule conjugates specifically activated in tumor microenvironment for targeting and use thereof” (priority 2014, dated 2020):
Where two headings read alike, the source gives them in different places.

Tests used:
Human heart = type: biochemical; conditions: Human heart, 1 mg/ml
[1] = system: Human fibrosarcoma HT-1080 tumor tissue homogenate; type: biochemical; conditions: Human fibrosarcoma HT-1080
How it was run: (§1)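 Compounds at 1 mg/ml were added to 100 μg of acidized tumor tissue homogenate (pH6.0) at 37° C. Proteases in the homogenate act on the compounds, and activation efficiency in each tissue was assessed.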

tumor tissue homogenates = type: biochemical
How it was run: as §1

[2] = Solubility / formulation test in solvent 1 and solvent 2; type: physicochemical
Procedure: In Table 11, AAN, AANL and AANK indicate the linkage formed by small peptides in the compounds, A is Ala, N is Asn, L is Leu and K is Lys. […] The dissolution concentration is 10 mg/ml.
B1, B2, B3 and B4 and various control compounds were dried under vacuum, sterilized via gas sterilization, and separately packing in a sterile room. Before animal test, B1, B2, B3 and B4 were dissolved by solvent 1 (injectable water) or solvent 2 (30% alcohol, 70% injectable water) and diluted by injectable water to the desired concentration in sterile room. […] Change in solubility may greatly affect the formulation scheme of a drug.
D1, D2, D3, D4 and various control compounds were dried under vacuum, sterilized via gas sterilization, and separately packing in a sterile room. […] Change in solubility may greatly affect the formulation scheme of a drug.

[3] = system: Human prostate cancer PC-3 cells / Panc-1 cells; assay: Tumor treatment in nude mice (PC-3 cells purchased, Panc-1 cells injected; Examples 22, 32, 42); type: in vivo; conditions: for Inhibition on tumor growth, in words: compared with parent drug group (same molar concentration) and control group; for Size of tumor (mm^3) Day 10 / inhibitory rate on tumor Day 10 / Size of tumor (mm^3) Day 24 / inhibitory rate on tumor Day 24: nude mice, IV once weekly for four weeks
How it was run: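 Nude mice bearing subcutaneous Panc-1 xenografts (5×10^6 cells on the back) were randomized once tumors reached at least 100 mm^3. Drugs were given intravenously once weekly for four weeks, with saline controls. PC-3 cells were grown in DMEM/10% FBS and used within passage 15.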

4T1 cells = assay: BALB/C mice model for tumor metastasis (4T1, lung metastases); type: in vivo; conditions: for Inhibitory rate on metastasis / Number of metastasized tumor: IV every three days for 4 times; for Inhibitory effect on tumor metastasis, in words: compared with parent drug group and control group
How it was run: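 10^6 4T1 cells (DMEM, 10% FBS, within passage 15) injected subcutaneously into the back of BALB/C mice; primary tumor resected at about 1.5 cm, then dosing began. Drugs given IV once every three days, 4 times; saline controls. Lungs removed day 27, Bouin's-stained, metastases counted under anatomical microscope.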

[4] = system: Human breast cancer MDA-MB435; assay: Multiple tumor models in nude mice: MDA-MB435; type: in vivo
Procedure: 1) Corresponding tumor cells were purchased from American type culture collection (ATCC) and identified according the specification provided by ATCC. Cells were cultivated in DMEM culture solution containing 10% fetal bovine serum at 37° C. and 5% CO2. The cells were passaged for every three days and cells within the 15th passage were used.
2) Production of tumor. 5×10^6 corresponding cells were subcutaneously injected to the back of the nude mice. Mice were randomly grouped after the tumor reached at least 100 mm^3. Then treatment began and the day on which the treatment began was day 1.
(§2) 3) Course of treatment. […] The control group was administered by physiological saline. Animals were administered once weekly for three weeks.
3) Course of treatment. According to the clinical application of A1, A1 was administered in a dose of ⅙ MTD, i.v., 17.6 μmol/kg. The control group was administered by physiological saline. Animals were administered once weekly for three weeks.
3) Course of treatment. According to the clinical application of B1, B1 was administered in a dose of ⅙ MTD, i.v., 17.6 μmol/kg. The control group was administered by physiological saline. Animals were administered once weekly for three weeks.
as §2, §2

BALB/C mice = assay: Maximum tolerated dose (MTD) / acute toxicity by single intravenous injection; conditions: for MTD (maximum tolerated dose): intravenous injection, one time
[5] = S1′-S4′ 24 mg/kg, Paclitaxel 8 mg/kg
[6] = 4T1, BALB/C mice, lung, day 27, S1′-S4′ 12 mg/kg, Paclitaxel 4 mg/kg
[7] = Table 38, B1-B4 25 mg/kg, Docetaxel […]
[8] = Table 40, BALB/C mice, 4T1, lung metastases day 27, B1-B4 17.6 μmol/kg, Docetaxel 3 μmol/kg
[9] = single intravenous injection, 125 mg/kg, 10 BALB/C mice per group
[10] = single intravenous injection, 150 mg/kg, 10 BALB/C mice per group
[11] = single intravenous injection, 175 mg/kg, 10 BALB/C mice per group
[12] = single intravenous injection, 200 mg/kg, 10 BALB/C mice per group
[13] = Table 50, BALB/C mice, 4T1, lung metastases day 27, D1-D4 25 mg/kg, Docetaxel 4.2 mg/kg

## COCCOCC(=O)N[C@H](C)C(=O)N[C@H](C)C(=O)N[C@H](CC(N)=O)C(=O)Nc1ccc(COC(=O)OC(C(=O)OC2C[C@@]3(O)C(OC(=O)c4ccccc4)[C@@H]4C5(OC(C)=O)COC5C[C@H](O)[C@@]4(C)C(=O)[C@H](OC(C)=O)C(=C2C)C3(C)C)[C@@H](NC(=O)c2ccccc2)c2ccccc2)cc1 (stereo in doubt) [S1′, 2-(2-methoxyethoxy) acetylamino-L-Ala-L-Ala-L-Asn-p-amino-benzyl-paclitaxel]
Human heart; 37°
  Activation ratio (%) in homogenates from different tumor tissues: none
[1]; 100 μg acidized homogenate pH6.0, 1 mg/ml, 37°
  Activation ratio (%) in homogenates from different tumor tissues: 74.7%
Tumor tissue homogenates
  Activation efficiency by tumor tissue, in words: highest activation efficiency among the screened compounds
[2]; Solvent 1 injectable water, dissolution concentration 10 mg/ml
  solubility in Solvent 1: soluble
[2]; Solvent 2: 50% injectable water, 45%-49% propanediol, 1%-5% Tween80, dissolution concentration 10 mg/ml
  solubility in Solvent 2: soluble
[2]; solvent 1 injectable water, solvent 2 50% injectable water, 42%-49% propanediol, 1%-8% Tween80
  Concentration achieved, completely dissolved in both solvent 1 and solvent 2: 10000 µg/mL
[3]
  Inhibition on tumor growth, in words: greatly improved
[3]; [5]
  Size of tumor (mm^3) Day 10: 76.42 ± 14.96 mm^3
  inhibitory rate on tumor Day 10: 35.7%
  Size of tumor (mm^3) Day 24: 84.62 ± 45.94 mm^3
  inhibitory rate on tumor Day 24: 66.1%
4T1 cells; [6]
  Inhibitory rate on metastasis: 99.2%
  Number of metastasized tumor: 2 ± 3
4T1 cells
  Inhibitory effect on tumor metastasis, in words: greatly improved
[4]; S1′ i.v. 17.6 μmol/kg once weekly for three weeks
  inhibitory rate on tumor (Day 26): 90.7%
BALB/C mice; BALB/C mice receiving 90 mg/kg injection
  Behaviors and death observed: no pilo-erection, hair tousle and lackluster, lethargy, stoop, irritable reaction and death
BALB/C mice; BALB/C mice
  MTD (maximum tolerated dose): about 90 mg/kg
BALB/C mice; BALB/C mice, single iv, 125 mg/kg
  Mortality rate (%): 0%
BALB/C mice; BALB/C mice, single iv, 125 mg/kg, 10 animals
  Number of dead animal: 0
BALB/C mice; BALB/C mice, single iv, 150 mg/kg
  Mortality rate (%): 0%
BALB/C mice; BALB/C mice, single iv, 150 mg/kg, 10 animals
  Number of dead animal: 0
BALB/C mice; BALB/C mice, single iv, 175 mg/kg
  Mortality rate (%): 0%
BALB/C mice; BALB/C mice, single iv, 175 mg/kg, 10 animals
  Number of dead animal: 0
BALB/C mice; BALB/C mice, single iv, 200 mg/kg
  Mortality rate (%): 10%
BALB/C mice; BALB/C mice, single iv, 200 mg/kg, 10 animals
  Number of dead animal: 1

## COCCOCC(=O)NCCCC[C@H](NC(=O)COCCOC)C(=O)N[C@H](C)C(=O)N[C@H](C)C(=O)N[C@H](CC(N)=O)C(=O)Nc1ccc(COC(=O)OC(C(=O)OC2C[C@@]3(O)[C@@H](OC(=O)c4ccccc4)[C@H]4[C@](C)(C(=O)[C@H](O)C(=C2C)C3(C)C)[C@@H](O)CC2OC[C@]24OC(C)=O)[C@@H](NC(=O)OC(C)(C)C)c2ccccc2)cc1 (stereo partly drawn) [Compound B1]
Human heart; Table 34, acidized homogenate, Docetaxel release by HPLC
  activation efficiency (%): 12.2%
[1]; Table 34, 1 mg/ml, 100 μg acidized homogenate, Docetaxel release by HPLC
  activation efficiency (%): 79.1%
[2]; solvent 1 (injectable water), Table 33, water-soluble Docetaxel series
  solubility in Solvent 1: insoluble
[2]; solvent 2 (30% alcohol, 70% injectable water), Table 33, water-soluble Docetaxel series
  solubility in Solvent 2: soluble
[3]; [7]
  Size of tumor (mm^3) Day 10: 92.4 ± 59.66 mm^3
  inhibitory rate on tumor Day 10: 67.8
  Size of tumor (mm^3) Day 24: 128.45 ± 105.56 mm^3
  inhibitory rate on tumor Day 24: 66.3
[3]
  Inhibition on tumor growth, in words: greatly improved
4T1 cells; [8]
  Inhibitory rate on metastasis: 96.0
  Number of metastasized tumor: 5 ± 3
4T1 cells
  Inhibitory effect on tumor metastasis, in words: greatly improved
[4]; Table 41, i.v. 17.6 μmol/kg once weekly for three weeks
  inhibitory rate on tumor (Day 26): 78.84%
BALB/C mice; BALB/C mice receiving 175 mg/kg injection
  Behaviors and death observed: no pilo-erection, hair tousle and lackluster, lethargy, stoop, irritable reaction and death
BALB/C mice; BALB/C mice
  MTD (maximum tolerated dose): about 150 mg/kg
BALB/C mice; [9]
  Mortality rate (%): 0%
  Number of dead animal: 0
BALB/C mice; [10]
  Mortality rate (%): 0%
  Number of dead animal: 0
BALB/C mice; [11]
  Mortality rate (%): 0%
  Number of dead animal: 0
BALB/C mice; [12]
  Mortality rate (%): 20%
  Number of dead animal: 2

## COCCOCC(=O)N[C@H](C)C(=O)N[C@H](C)C(=O)N[C@H](CC(N)=O)C(=O)Nc1ccc(COC(=O)OC(C(=O)OC2C[C@@]3(O)[C@@H](OC(=O)c4ccccc4)[C@H]4[C@](C)(C(=O)[C@H](O)C(=C2C)C3(C)C)[C@@H](O)CC2OC[C@]24OC(C)=O)[C@@H](NC(=O)OC(C)(C)C)c2ccccc2)cc1 (stereo partly drawn) [Compound D1, 2-(2-methoxyethoxy) acetyl-L-Ala-L-Ala-L-Asn-4-amino benzyl-Docetaxel]
[1]; Table 45, 1 mg/ml, 100 μg acidized homogenate, Docetaxel release by HPLC
  Activation ratio (%) in homogenates from different tumor tissues: 77.23%
Tumor tissue homogenates
  Activation efficiency by tumor tissue, in words: highest activation efficiency
[2]; Table 44, second column (head repeats Solvent 1), text: solvent 2 (45% alcohol, 55% injectable water)
  solubility in Solvent 1: soluble
[2]; solvent 1 (injectable water), Table 44, first column, Docetaxel D series
  solubility in Solvent 1: insoluble
4T1 cells; [13]
  Inhibitory rate on metastasis: 95.2
  Number of metastasized tumor: 5 ± 3
4T1 cells
  Inhibitory effect on tumor metastasis, in words: greatly improved
[4]; Table 51, 25 mg/kg once weekly for three weeks
  inhibitory rate on tumor (Day 26): 93.5%
BALB/C mice; BALB/C mice receiving 150 mg/kg injection
  Behaviors and death observed: no pilo-erection, hair tousle and lackluster, lethargy, stoop, irritable reaction and death
BALB/C mice; BALB/C mice
  MTD (maximum tolerated dose): about 150 mg/kg
BALB/C mice; [9]
  Mortality rate (%): 0%
  Number of dead animal: 0
BALB/C mice; [10]
  Mortality rate (%): 0%
  Number of dead animal: 0
BALB/C mice; [11]
  Mortality rate (%): 0%
  Number of dead animal: 0
BALB/C mice; [12]
  Mortality rate (%): 10%
  Number of dead animal: 1
